US20090018111A1, “Novel Antimicrobial Medicament” (priority 2004, published 2009)
Where two headings read alike, the source gives them in different places.

Legend:
[1] = test system: B. subtilis ATCC6633; experiment: Sensitivity test (agar dilution); type: cell-based, Bacillus subtilis; settings: Bacillus subtilis, read-out: MIC
Summary of the method: (§1)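 Standard Japanese agar dilution method. Drugs alone or combined were serially halved in Mueller Hinton agar, inoculated with overnight (37° C) cultures at about 10^6 CFU/ml. Values are MICs.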

[2] = test system: S. marcescens GN6473; experiment: Sensitivity test (agar dilution); type: cell-based, Serratia marcescens; settings: Serratia marcescens, read-out: MIC
Summary of the method: as §1

[3] = test system: S. marcescens X 100; experiment: Sensitivity test (agar dilution); type: cell-based, Serratia marcescens; settings: Serratia marcescens, read-out: MIC
Summary of the method: as §1

[4] = test system: C. freundii GN346; experiment: Sensitivity test (agar dilution); type: cell-based, Citrobacter freundii; settings: Citrobacter freundii, read-out: MIC
Summary of the method: as §1

[5] = test system: P. mirabiris GN2425; experiment: Sensitivity test (agar dilution); type: cell-based, Proteus mirabilis; settings: Proteus mirabilis, read-out: MIC
Summary of the method: as §1

[6] = test system: S. aureus 209P; experiment: Sensitivity test (agar dilution); type: cell-based, Staphylococcus aureus; settings: Staphylococcus aureus, 209P, read-out: MIC
Summary of the method: as §1

[7] = test system: S. aureus MS94088 (hetero-MRSA); experiment: Sensitivity test (agar dilution); type: cell-based, Staphylococcus aureus; settings: Staphylococcus aureus, MRSA
Summary of the method: as §1

[8] = test system: S. maltophilia IID1275; experiment: Sensitivity test (agar dilution); type: cell-based, Stenotrophomonas maltophilia; settings: Stenotrophomonas maltophilia, read-out: MIC
Summary of the method: as §1

[9] = test system: E. faecium ATCC19434; experiment: Sensitivity test (agar dilution); type: cell-based, Enterococcus faecium
Summary of the method: as §1

[10] = test system: E. coli ML1410 RP4; experiment: microbe, parasite or virus in culture; type: cell-based, Escherichia coli; settings: Escherichia coli
Summary of the method: as §1

[11] = test system: E. aerogenes ATCC13048; experiment: Sensitivity test (agar dilution); type: cell-based, Enterobacter aerogenes; settings: Klebsiella aerogenes, read-out: MIC
Summary of the method: as §1

[12] = test system: M. catarrhalis ATCC25238; experiment: Sensitivity test (agar dilution); type: cell-based, Moraxella catarrhalis; settings: Moraxella catarrhalis, read-out: MIC
Summary of the method: as §1

[13] = test system: M. catarrhalis ATCC8176; experiment: Sensitivity test (agar dilution); type: cell-based, Moraxella catarrhalis; settings: Moraxella catarrhalis, read-out: MIC
Summary of the method: as §1

Measured: MIC

C[C@@H](O)[C@H]1C(=O)N2C(C(=O)O)=C(S[C@@H]3CN[C@H](C(=O)N(C)C)C3)[C@H](C)[C@H]12 [MEPM, meropenem]
> 32 µg/mL: [8]; IID1275, Concomitant (MEPM:SM = 1:1) | [8]; IID1275, Concomitant (MEPM:SM = 1:2) | [8]; IID1275, Concomitant (MEPM:SM = 1:4) | [8]; IID1275, Concomitant drug (MEPM:SM = 2:1) | [8]; IID1275, alone
0.031 µg/mL: [2]; GN6473, Concomitant (MEPM:SM = 1:1) | [2]; GN6473, Concomitant (MEPM:SM = 1:2) | [2]; GN6473, Concomitant (MEPM:SM = 1:4) | [2]; GN6473, Concomitant drug (MEPM:SM = 2:1) | [3]; X100, Concomitant drug (MEPM:SM = 2:1) | [3]; X100, alone | [4]; GN346, Concomitant (MEPM:SM = 1:1) | [4]; GN346, Concomitant (MEPM:SM = 1:2) | [4]; GN346, Concomitant (MEPM:SM = 1:4) | [4]; GN346, Concomitant drug (MEPM:SM = 2:1) | [5]; GN2425, Concomitant (MEPM:SM = 1:2) | [5]; GN2425, Concomitant drug (MEPM:SM = 2:1) | [9]; Enterococcus faecium, ATCC19434, Concomitant (MEPM:SM = 1:4), read-out: MIC | [10]; ML1410RP4, alone | [11]; ATCC13048, Concomitant (MEPM:SM = 1:2) | [11]; ATCC13048, Concomitant (MEPM:SM = 1:4) | [11]; ATCC13048, Concomitant drug (MEPM:SM = 2:1)
0.5 µg/mL: [7]; Concomitant drug (MEPM:SM = 2:1), read-out: MIC | [9]; Enterococcus faecium, ATCC19434, Concomitant drug (MEPM:SM = 2:1), read-out: MIC
0.25 µg/mL: [7]; Concomitant (MEPM:SM = 1:1), read-out: MIC
≤ 0.016 µg/mL: [1]; ATCC6633, Concomitant (MEPM:SM = 1:1) | [1]; ATCC6633, Concomitant (MEPM:SM = 1:2) | [1]; ATCC6633, Concomitant (MEPM:SM = 1:4) | [1]; ATCC6633, Concomitant drug (MEPM:SM = 2:1) | [3]; X100, Concomitant (MEPM:SM = 1:1) | [3]; X100, Concomitant (MEPM:SM = 1:2) | [3]; X100, Concomitant (MEPM:SM = 1:4) | [5]; GN2425, Concomitant (MEPM:SM = 1:1) | [5]; GN2425, Concomitant (MEPM:SM = 1:4) | [6]; Concomitant (MEPM:SM = 1:1) | [6]; Concomitant (MEPM:SM = 1:2) | [6]; Concomitant (MEPM:SM = 1:4) | [6]; Concomitant drug (MEPM:SM = 2:1) | [10]; ML1410RP4, Concomitant (MEPM:SM = 1:1) | [10]; ML1410RP4, Concomitant (MEPM:SM = 1:2) | [10]; ML1410RP4, Concomitant (MEPM:SM = 1:4) | [10]; ML1410RP4, Concomitant drug (MEPM:SM = 2:1) | [11]; ATCC13048, Concomitant (MEPM:SM = 1:1) | [12]; ATCC25238, Concomitant (MEPM:SM = 1:1) | [12]; ATCC25238, Concomitant (MEPM:SM = 1:2) | [12]; ATCC25238, Concomitant (MEPM:SM = 1:4) | [12]; ATCC25238, Concomitant drug (MEPM:SM = 2:1) | [12]; ATCC25238, alone | [13]; ATCC8176, Concomitant (MEPM:SM = 1:1) | [13]; ATCC8176, Concomitant (MEPM:SM = 1:2) | [13]; ATCC8176, Concomitant (MEPM:SM = 1:4) | [13]; ATCC8176, Concomitant drug (MEPM:SM = 2:1) | [13]; ATCC8176, alone
8 µg/mL: [9]; Enterococcus faecium, ATCC19434, alone, read-out: MIC
4 µg/mL: [7]; alone, read-out: MIC
0.125 µg/mL: [7] | [9]; Concomitant (MEPM:SM = 1:2) | [9]; Enterococcus faecium, ATCC19434
0.063 µg/mL: [1]; ATCC6633, alone | [2]; GN6473, alone | [4]; GN346, alone | [5]; GN2425, alone | [6]; alone | [7]; Concomitant (MEPM:SM = 1:4), read-out: MIC | [11]; ATCC13048, alone
